Patent publication US20250304622A1, “SHORT APOLIPOPROTEIN E MIMETIC PEPTIDES AND METHODS OF USE” (The United States of America, as represented by the …, priority 2022, published 2025)
Numbered stars: 1 amine (or outer) side, 2 acyl side, 3 side chain; on linkers, the order of the positions; unused ones are H or OH. Bridge positions count the residues as written; N and C are the ends. Square brackets hold non-standard residues; d marks the D form. Primed or numbered codes have the meaning given here. * marks the point of attachment. B5 = bis-pentenylglycine, C=CCCCC(CCCC=C)(N[*:1])C(=O)[*:2]; R8 = C=CCCCCCC[C@@](C)(N)C(=O)O; S8 = C=CCCCCCC[C@](C)(N)C(=O)O; αMeL = CC(C)C[C@](C)(N)C(=O)O; Octanoyl′ = not defined here; S5 = C=CCCC[C@](C)(N)C(=O)O; Myristyl = CCCCCCCCCCCCCC*; Octanoyl = CCCCCCCC(=O)*

Legend:
WT HepG2 cells [1] = test: LDL uptake by heparinase treated WT HepG2 cells; type: cell-based; details: Heparinase I, II, and III pretreatment
Method: (§1) Involvement of heparan sulfate proteoglycans (HSPGs) in peptide-mediated LDL uptake was tested. WT HepG2 cell were pretreated with a mixture of Heparinase I, II, and III (IBEX Pharmaceuticals) to degrade heparan sulfate chains on the cell surface. Next, LDL uptake studies were performed with OctaC-E139-150-S and MyrN-E141-150-amL peptides (FIGS. 18A-18C). […] Similarly, heparinase treatment attenuated MyrN-E141-150-amL mediated LDL uptake in WT HepG2 cells (FIG. 18C).

LDLR-KO mice = test: Single dose LDLR-KO mouse study, plasma total cholesterol; type: in vivo; details: 2.5 μmol/kg (4.6 mg/kg) i.v. single dose, after 3 h and 6 h of injection, FIG. 21A
Method: MyrN-E141-150-amL and OctaN-E141-150 were tested in a single dose LDLR-KO mouse study. LDLR-KO mice (n=9) were divided into 3 groups: control group (PBS), n=3; MyrN-E141-150-amL (2.5 μmol/kg; 4.6 mg/kg), n=3; and OctaN-E141-150 (2.5 μmol/kg; 4.4 mg/kg), n=3. Mice were fed normal chow diet for the whole study. Peptides were injected i.v. and blood samples were collected at pre-injection and 1 h, 3 h, 6 h and 24 h after the injection of the peptides. Measurement of plasma total cholesterol was as described in Example 2. MyrN-E141-150-amL lowered plasma total cholesterol around 15-30% after 3 h and 6 h of injection (FIG. 21A).

WT HepG2 cells [2] = test: Effect of heparin on peptide mediated LDL uptake in WT HepG2 cells; type: cell-based; details: 10 μM peptide, heparin 10 USP/ml, 1 h at 37° C., FIG. 19
Method: Fluorescently labeled LDL (Alexa Fluor 568-NHS ester) at 50 μg/ml final protein concentration was preincubated with or without 10 μM MyrN-E141-150-amL peptide for 30 min at 37° C. (solutions made in DMEM (no phenol red, no serum) with 0.1% BSA). To some LDL and some LDL/peptide samples, heparin was added (10 USP/ml final conc.; heparin, sodium injection from porcine intestinal mucosa (Fresenius Kabi USA, Lake Zurich, IL)). Mixtures were preincubated for additional 5 min at 37° C. Next, WT HepG2 cells were incubated with the LDL/peptide/heparin mixtures for 1 h at 37° C. Lipoprotein uptake was assessed by flow cytometry. Heparin diminished the effect of MyrN-E141-150-amL peptide on LDL uptake in the wild type HepG2 cells (FIG. 19).

ApoE-ko mice = test: Single dose study in ApoE-ko mice, plasma total cholesterol and triglycerides; type: in vivo; details: for lowering of plasma total cholesterol: ApoE-KO mice, 2.5 μmol/kg i.v. single dose, FIG. 20A; for plasma total cholesterol / plasma triglyceride levels: ApoE-ko mice, 4.6 mg/kg (2.5 μmol/kg) intravenous; for plasma total cholesterol: FIG. 10A; for plasma triglyceride levels: effect transient, FIG. 10B
Method: The effect of OctaC-E139-150 and OctaN-E139-150 peptides were tested in ApoE-ko mice. The mice were kept on a normal chow diet. At 3.5 months of age, 15 mice were divided into three groups of five mice each, as follows: 1) control group; 2) OctaC-E139-150 peptide group; and 3) OctaN-E139-150 peptide group. Peptides were dissolved in PBS at 1.5 mg/ml (810 μM OctaC-E139-150; 849 μM OctaN-E139-150). Mice were weighed one day before peptide administration and peptide amount was calculated for each mouse to receive 4.6 mg/kg peptide (2.5 μmol/kg). The calculated amount of 1.5 mg/ml peptide was placed in a syringe and normalized with PBS to 80 μl. The mice received intravenous injection of PBS (control) or the peptide. Blood samples were collected immediately prior to injection, and 1 hour, 3 hours, and 6 hours after injection. Blood was centrifuged at 3000 rpm at 4° C. for 20 minutes and plasma was separated (20-30 μl) and stored at 4° C. Plasma triglycerides and total cholesterol were measured the next day using L-type triglyceride M assay and The cholesterol E kit (Wako, FUJIFILM Medical Systems USA).
MyrN-E139-150 and OctaN-E139-150 peptides were tested in a single dose ApoE-KO mouse study. ApoE-KO mice (n=9) were divided into 3 groups: control group (PBS), n=3; MyrN-E139-150 (2.5 μmol/kg; 4.6 mg/kg), n=3; and OctaN-E139-150 (2.5 μmol/kg; 4.4 mg/kg), n=3. Mice were fed normal chow diet for the whole study. Peptides were injected i.v. and blood samples were collected at pre-injection and 1 h, 3 h, and 6 h after the injection of the peptides. Measurement of plasma total cholesterol and triglycerides was as described in Example 2. The peptides lowered plasma total cholesterol (FIG. 20A; 37% at 3 h; 29% at 6 h) and triglycerides (FIG. 20B; 30-50% at 1 h).

LDLR-ko HepG2 cells = test: LDL uptake by heparinase treated LDLR-KO HepG2 cells; type: cell-based; details: heparinase pretreatment, FIG. 18B
Method: as §1

[3] = system: Mouse Hepatitis Virus (MHV); test: MHV-GFP replication in HeLa mCC1a cells; type: cell-based; details: 15 μM peptide, 16 hours, FIG. 11
From the text: Mouse Hepatitis Virus (MHV) is a beta coronavirus that infects mice cells via the murine CEACAM1 receptor (mCC1a receptor). HeLa (human epithelium) cells that have been modified to express the mCC1a receptor can be infected with MHV. The recombinant MHV used in this experiment has been modified such that it contains additional nucleocapsid (N) protein segment which is N-terminally fused with a green fluorescence protein tag (GFP) (see Verheije et al., J. Virol. 84:11575-11579, 2010). When cells are infected with MHV, the MHV replicates generating more GFP and increasing the fluorescent signal.
HeLa mCC1a cells were cultured in a 96 well plate. Cells were infected for 2 hours with MHV-GFP at 37° C. Viral stock solution was diluted 40-fold. Stock was prepared by infecting HeLa cells with MHV-GFP for 3 days and by collecting cellular media. Cells were washed with PBS and treated with media (DMEM plus 10% FBS, 100 IU/ml penicillin G, […] streptomycin, 0.5 mg/ml G418) containing ApoE peptides (15 μM) or media without peptide and incubated for 16 hours at 37° C. Cells were washed with PBS and total GFP fluorescence (ex/em 488/520) in cells was measured on the plate using a fluorescence plate reader.

[4] = low peptide dose, FIGS. 18A, 18C

Myristyl-(R8)RKLRKR(S5)L(alpha-methyl)R-NH2 (Myristyl-[R8]RKLRKR[S5][αMeL]R-NH2; staple 1-8; SMILES CCCCCCCCCCCCCCN[C@]1(C)CCCCCCC=CCCC[C@@](C)(C(=O)N[C@@](C)(CC(C)C)C(=O)N[C@@H](CCCNC(=N)N)C(N)=O)NC(=O)[C@H](CCCNC(=N)N)NC(=O)[C@H](CCCCN)NC(=O)[C@H](CCCNC(=N)N)NC(=O)[C@H](CC(C)C)NC(=O)[C@H](CCCCN)NC(=O)[C@H](CCCNC(=N)N)NC1=O) [MyrN-E141-150-amL]
effect of heparinase treatment on peptide mediated LDL uptake (WT HepG2 cells [1]; [4]): attenuated | lowering of plasma total cholesterol (LDLR-KO mice): 15-30% | effect of heparin on peptide effect on LDL uptake (WT HepG2 cells [2]): diminished

Myristyl-SH(R8)RKLRKR(S5)LR-NH2 (Myristyl-SH[R8]RKLRKR[S5]LR-NH2; staple 3-10; SMILES CCCCCCCCCCCCCCN[C@@H](CO)C(=O)N[C@@H](Cc1c[nH]cn1)C(=O)N[C@]1(C)CCCCCCC=CCCC[C@@](C)(C(=O)N[C@@H](CC(C)C)C(=O)N[C@@H](CCCNC(=N)N)C(N)=O)NC(=O)[C@H](CCCNC(=N)N)NC(=O)[C@H](CCCCN)NC(=O)[C@H](CCCNC(=N)N)NC(=O)[C@H](CC(C)C)NC(=O)[C@H](CCCCN)NC(=O)[C@H](CCCNC(=N)N)NC1=O) [MyrN-E139-150]
lowering of plasma total cholesterol (ApoE-ko mice; at 3 h): 37% | lowering of plasma total cholesterol (ApoE-ko mice; at 6 h): 29%

Ac-SH(R8)RKLRKR(S5)LR-Octanoyl (Ac-SH[R8]RKLRKR[S5]LR-{Octanoyl′}; staple 3-10) [OctaC-E139-150]
effect of heparinase treatment on peptide mediated LDL uptake (WT HepG2 cells [1]; higher peptide concentrations, FIG. 18A): heparinase treatment had a lower effect | effect of heparinase treatment on peptide mediated LDL uptake (WT HepG2 cells [1]; [4]): diminished low dose peptide effect on LDL uptake | plasma total cholesterol (ApoE-ko mice): significantly decreased | plasma triglyceride levels (ApoE-ko mice): significantly decreased | effect of heparinase treatment on peptide mediated LDL uptake (LDLR-ko HepG2 cells): showed similar results | MHV-GFP fluorescence (viral replication) [3]: dramatic reductions

Ac-RVR(S5)ASH(B5)RKLRKR(S8)LR-NH2 (Ac-RVR[S5]ASH[B5]RKLRKR[S8]LR-NH2; staple 8-15, 4-8) [E134-150-Stitch]
MHV-GFP fluorescence (viral replication) [3]: dramatic reductions

Octanoyl-SH(R8)RKLRKR(S5)LR-NH2 (Octanoyl-SH[R8]RKLRKR[S5]LR-NH2; staple 3-10; SMILES CCCCCCCC(=O)N[C@@H](CO)C(=O)N[C@@H](Cc1c[nH]cn1)C(=O)N[C@]1(C)CCCCCCC=CCCC[C@@](C)(C(=O)N[C@@H](CC(C)C)C(=O)N[C@@H](CCCNC(=N)N)C(N)=O)NC(=O)[C@H](CCCNC(=N)N)NC(=O)[C@H](CCCCN)NC(=O)[C@H](CCCNC(=N)N)NC(=O)[C@H](CC(C)C)NC(=O)[C@H](CCCCN)NC(=O)[C@H](CCCNC(=N)N)NC1=O) [OctaN-E139-150]
lowering of plasma total cholesterol (ApoE-ko mice; at 3 h): 37% | lowering of plasma total cholesterol (ApoE-ko mice; at 6 h): 29% | plasma total cholesterol (ApoE-ko mice): significantly decreased | plasma triglyceride levels (ApoE-ko mice): significantly decreased
